Test results as given in PubChem BioAssay (NCI).
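Abbreviation: GI50, concentration required for 50% inhibition of growth. TGI marks complete inhibition of growth.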

Key:
Assay in all cases: DTP human tumour cell line panel, 384-well format
[1] = system: HCC-2998 colon
[2] = system: U251 glioblastoma
[3] = system: NCI-H226 lung
[4] = system: UACC-62 melanoma
[5] = system: LOX IMVI melanoma
[6] = system: MDA-MB-231 breast
[7] = system: SR leukemia
[8] = system: T-47D breast
[9] = system: A549 NSCLC
[10] = system: OVCAR-5 ovarian
[11] = system: EKVX NSCLC
[12] = system: HOP-92 NSCLC
[13] = system: 786-0 renal
[14] = system: SNB-19 CNS
[15] = system: NCI-H522 lung
[16] = system: M14 melanoma
[17] = system: SF-295 CNS
[18] = system: SK-MEL-2 melanoma
[19] = system: CCRF-CEM leukemia
[20] = system: NCI-H23 lung
[21] = system: OVCAR-4 ovarian
[22] = system: NCI-H322M lung
[23] = system: HOP-62 NSCLC
[24] = system: RPMI-8226 leukemia
[25] = system: COLO 205 colon
[26] = system: NCI/ADR-RES ovarian
[27] = system: SW-620 colon
[28] = system: UACC-257 melanoma
[29] = system: OVCAR-3 ovarian
[30] = system: SF-268 CNS
[31] = system: KM12 colon
[32] = system: HT29 colon
[33] = system: HCT-116 colon
[34] = system: UO-31 renal
[35] = system: NCI-H460 NSCLC
[36] = system: MDA-MB-435 melanoma
[37] = system: MOLT-4 leukemia
[38] = system: MALME-3M melanoma
[39] = system: HS 578T breast
[40] = system: SNB-75 CNS
[41] = system: RXF 393 renal
[42] = system: CAKI-1 renal
[43] = system: SK-MEL-28 melanoma
[44] = system: K-562 leukemia
[45] = system: A498 renal
[46] = system: SN12C renal
[47] = system: BT-549 breast
[48] = system: MDA-MB-468 breast
[49] = system: HCT-15 colon
[50] = system: PC-3 prostate
[51] = system: ACHN renal
[52] = system: SK-MEL-5 melanoma
[53] = system: MCF7 breast
[54] = system: IGROV1 ovarian
[55] = system: SF-539 CNS
[56] = system: HL-60(TB) leukemia
[57] = system: DU-145 prostate
[58] = system: SK-OV-3 ovarian

Compound `COc1c(C)cnc(Cn2cnc3c(Cl)nc(N)nc32)c1C` has a GI50 [1] of 0.0923 µM, a TGI [1] of 0.438 µM and a GI50 [2] of 0.0473 µM. For the same compound, the TGI [2] was 1.3 µM, the GI50 [3] was 0.245 µM and the TGI [3] was > 100 µM. It also gave a GI50 [4] of 0.145 µM, a TGI [4] of 0.711 µM and a GI50 [5] of 0.115 µM. It also gave a TGI [5] of 0.245 µM, a GI50 [6] of 0.272 µM and a TGI [6] of 0.927 µM. It also gave a GI50 [7] of 0.0163 µM, a TGI [7] of 0.0311 µM and a GI50 [8] of 0.339 µM. For the same compound, the TGI [8] was 14.8 µM, the GI50 [9] was 0.0739 µM and the TGI [9] was > 100 µM. For the same compound, the GI50 [10] was 0.264 µM, the TGI [10] was > 100 µM and the GI50 [11] was 0.319 µM. For the same compound, the TGI [11] was 5.03 µM, the GI50 [12] was 0.241 µM and the TGI [12] was 0.737 µM. For the same compound, the GI50 [13] was 0.0894 µM, the TGI [13] was 2.78 µM and the GI50 [14] was 0.262 µM. For the same compound, the TGI [14] was 5.62 µM, the GI50 [15] was 0.0617 µM and the TGI [15] was 0.313 µM. The GI50 [16] was 0.287 µM, the TGI [16] was 18.1 µM and the GI50 [17] was 0.134 µM. It also gave a TGI [17] of 0.654 µM, a GI50 [18] of 0.482 µM and a TGI [18] of 0.783 µM. For the same compound, the GI50 [19] was 0.0369 µM, the TGI [19] was 0.43 µM and the GI50 [20] was 0.149 µM. The TGI [20] was 0.5 µM, the GI50 [21] was 0.286 µM and the TGI [21] was 27.4 µM. For the same compound, the GI50 [22] was 0.167 µM, the TGI [22] was 80.1 µM and the GI50 [23] was 0.112 µM. The TGI [23] was 1.15 µM, the GI50 [24] was 0.0715 µM and the TGI [24] was 0.296 µM. For the same compound, the GI50 [25] was 0.0286 µM, the TGI [25] was 0.0981 µM and the GI50 [26] was 0.177 µM. For the same compound, the TGI [26] was 0.498 µM, the GI50 [27] was 0.0787 µM and the TGI [27] was 5.03 µM. It also gave a GI50 [28] of 0.651 µM, a TGI [28] of 34.6 µM and a GI50 [29] of 0.165 µM. For the same compound, the TGI [29] was 13.8 µM, the GI50 [30] was 0.133 µM and the TGI [30] was 23.8 µM. It also gave a GI50 [31] of 0.0523 µM, a TGI [31] of 14 µM and a GI50 [32] of 0.0615 µM. The TGI [32] was > 100 µM, the GI50 [33] was 0.194 µM and the TGI [33] was > 100 µM. For the same compound, the GI50 [34] was 0.0745 µM, the TGI [34] was > 100 µM and the GI50 [35] was 0.034 µM. For the same compound, the TGI [35] was 0.123 µM, the GI50 [36] was 0.154 µM and the TGI [36] was 53.7 µM. The GI50 [37] was 0.0362 µM, the TGI [37] was 0.123 µM and the GI50 [38] was 0.189 µM. The TGI [38] was 0.438 µM, the GI50 [39] was 0.307 µM and the TGI [39] was 1.41 µM. For the same compound, the GI50 [40] was 0.357 µM, the TGI [40] was 2.08 µM and the GI50 [41] was 0.692 µM. The TGI [41] was 7.52 µM, the GI50 [42] was 0.47 µM and the TGI [42] was 2.87 µM. For the same compound, the GI50 [43] was 0.388 µM, the TGI [43] was 16.2 µM and the GI50 [44] was 0.0558 µM. For the same compound, the TGI [44] was 0.621 µM, the GI50 [45] was 0.381 µM and the TGI [45] was > 100 µM. The GI50 [46] was 0.143 µM, the TGI [46] was 0.488 µM and the GI50 [47] was 0.0508 µM. The TGI [47] was 0.269 µM, the GI50 [48] was 0.0622 µM and the TGI [48] was 0.276 µM. For the same compound, the GI50 [49] was 0.0596 µM, the TGI [49] was 13.1 µM and the GI50 [50] was 0.137 µM. It also gave a TGI [50] of 0.664 µM, a GI50 [51] of 0.163 µM and a TGI [51] of 38 µM. The GI50 [52] was 0.0596 µM, the TGI [52] was 16 µM and the GI50 [53] was 0.0512 µM. The TGI [53] was > 100 µM, the GI50 [54] was 0.0559 µM and the TGI [54] was 0.626 µM. It also gave a GI50 [55] of 0.0972 µM, a TGI [55] of 0.389 µM and a GI50 [56] of 0.0522 µM. It also gave a TGI [56] of 0.172 µM, a GI50 [57] of 0.0407 µM and a TGI [57] of 1.41 µM. It also gave a GI50 [58] of 0.264 µM and a TGI [58] of 5 µM.
